assay: recombinant UMI read abundance after kanamycin selection (control-corrected) (log10(CPM+1)); higher = more efficient recombination; extreme values may be limits of the assay; sequences stand for … in AGTGCAGAGAAAATCGGCCAGTTTTCTCTGCCTGCAGTCCGCATGCCGTGGGACCCCTTGGGTTCTAACCTGTTGCCTAGATTTATGCAGCGGACTGCCTTTCTCCCAAAGTGATAAACCGG…AGGTTGGTTTCACT; site = the 11-nt donor
Summary of the method: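 Counts of recombinant UMIs were reported as log10(CPM+1). Before that, they were converted to CPM, averaged over replicates and scaled using control-derived factors. They came from PCR across the donor–target junction after Escherichia coli carrying the pair library and target plasmid was plated on IPTG (0.07 mM) plus kanamycin, or unselected, in two replicates each.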
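Also: IS621 bridge recombinase in Escherichia coli cells against a fixed T5 target plasmid.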

Row | Sequence | recombinant UMI read abundance (log10)
1 | ATGTGCCCATGGACCGGTTTTCCCGGTAATCCGTATTTGCG (site ATGTGCCCTCG) | 0
2 | ATGTTCCCATGGACCGGTTTTCCCGGTAATCCGTATTTGTG (site AAGTTCCCTCA) | 0.0217
3 | ATGTTCCCATGGACCGGTTTTCCCGGTAATCCGTATTTGTG (site ACGTTCCCTCA) | 0.0446
4 | ATGTTCCCATGGACCGGTTTTCCCGGTAATCCGTATTTGTG (site AGGTTCCCTCA) | 0.0415
5 | ATGTTCCCATGGACCGGTTTTCCCGGTAATCCGTATTTGTG (site ATGTTCCCTCA) | 0.419
6 | ATGTTCGCATGGACCGGTTTTCCCGGTAATCCGTATTTGTA (site ATGTTCGCTTA) | 2.46
7 | ATGTTTGCATGGACCGGTTTTCCCGGTAATCCGTATTTGAT (site ATGTTTGCTAT) | 2.16
8 | ATTAAACCATGGACCGGTTTTCCCGGTAATCCGTATTTGCC (site ATTAAACCTGG) | 0
9 | ATTAAAGCATGGACCGGTTTTCCCGGTAATCCGTATTTGTA (site ATTAAAGCTTA) | 2.6
10 | ATTAAGACATGGACCGGTTTTCCCGGTAATCCGTATTTGGT (site ATTAAGACTAC) | 1.07
11 | ATTAAGACATGGACCGGTTTTCCCGGTAATCCGTATTTGGT (site ATTCAGACTAC) | 0.417
12 | ATTAAGACATGGACCGGTTTTCCCGGTAATCCGTATTTGGT (site ATTGAGACTAC) | 0.577
13 | ATTAAGACATGGACCGGTTTTCCCGGTAATCCGTATTTGGT (site ATTTAGACTAC) | 0.285
14 | ATTAGGCCATGGACCGGTTTTCCCGGTAATCCGTATTTGTG (site ATTAGGCCTCA) | 0.00967
15 | ATTCAAGCATGGACCGGTTTTCCCGGTAATCCGTATTTGAG (site ATACAAGCTCT) | 1.07
16 | ATTCAAGCATGGACCGGTTTTCCCGGTAATCCGTATTTGAG (site ATCCAAGCTCT) | 0.605
17 | ATTCAAGCATGGACCGGTTTTCCCGGTAATCCGTATTTGAG (site ATGCAAGCTCT) | 0.501
18 | ATTCAAGCATGGACCGGTTTTCCCGGTAATCCGTATTTGAG (site ATTCAAGCTCT) | 1.16
19 | ATTCAGACATGGACCGGTTTTCCCGGTAATCCGTATTTGGT (site ATTAAGACTAC) | 0.402
20 | ATTCAGACATGGACCGGTTTTCCCGGTAATCCGTATTTGGT (site ATTCAGACTAC) | 0.566
21 | ATTCAGACATGGACCGGTTTTCCCGGTAATCCGTATTTGGT (site ATTGAGACTAC) | 0.305
22 | ATTCAGACATGGACCGGTTTTCCCGGTAATCCGTATTTGGT (site ATTTAGACTAC) | 0.0116
23 | ATTCATACATGGACCGGTTTTCCCGGTAATCCGTATTTGTT (site ATTCATACTAA) | 0.291
24 | ATTGAGACATGGACCGGTTTTCCCGGTAATCCGTATTTGGG (site ATTGAGACTAC) | 0.0103
25 | ATTGAGACATGGACCGGTTTTCCCGGTAATCCGTATTTGGG (site ATTGAGACTCC) | 0.0142

Row | Sequence | recombinant UMI read abundance (log10)
26 | ATTGAGACATGGACCGGTTTTCCCGGTAATCCGTATTTGGG (site ATTGAGACTGC) | 0
27 | ATTGAGACATGGACCGGTTTTCCCGGTAATCCGTATTTGGG (site ATTGAGACTTC) | 0.0235
28 | ATTGAGTCATGGACCGGTTTTCCCGGTAATCCGTATTTGGT (site ATTGAGACTAC) | 0.0845
29 | ATTGAGTCATGGACCGGTTTTCCCGGTAATCCGTATTTGGT (site ATTGAGCCTAC) | 0.00525
30 | ATTGAGTCATGGACCGGTTTTCCCGGTAATCCGTATTTGGT (site ATTGAGGCTAC) | 0
31 | ATTGAGTCATGGACCGGTTTTCCCGGTAATCCGTATTTGGT (site ATTGAGTCTAC) | 2.29
32 | ATTGTAACATGGACCGGTTTTCCCGGTAATCCGTATTTGCT (site AATGTAACTAG) | 1.49
33 | ATTGTAACATGGACCGGTTTTCCCGGTAATCCGTATTTGCT (site ACTGTAACTAG) | 1.9
34 | ATTGTAACATGGACCGGTTTTCCCGGTAATCCGTATTTGCT (site AGTGTAACTAG) | 1.5
35 | ATTGTAACATGGACCGGTTTTCCCGGTAATCCGTATTTGCT (site ATTGTAACTAG) | 2.15
36 | ATTGTTGCATGGACCGGTTTTCCCGGTAATCCGTATTTGAC (site ATTGTTGCTGT) | 2.18
37 | ATTGTTGCATGGACCGGTTTTCCCGGTAATCCGTATTTGCT (site ATTGTTGCTAG) | 2.37
38 | ATTTAGACATGGACCGGTTTTCCCGGTAATCCGTATTTGCG (site ATTTAGACTCG) | 1.16
39 | ATTTAGTCATGGACCGGTTTTCCCGGTAATCCGTATTTGTT (site CACATCCCTTC) | 0.0539
40 | ATTTCTACATGGACCGGTTTTCCCGGTAATCCGTATTTGTT (site ATTTCTACTAA) | 0.0251
41 | ATTTGATCATGGACCGGTTTTCCCGGTAATCCGTATTTGTG (site ATTTGATCTCA) | 1.71
42 | CAAACAGCATGGACCGGTTTTCCCGGTAATCCGTATTTGCT (site CAAACAGCTAG) | 2.26
43 | CAAACAGCATGGACCGGTTTTCCCGGTAATCCGTATTTGCT (site CAACCAGCTAG) | 0.00434
44 | CAAACAGCATGGACCGGTTTTCCCGGTAATCCGTATTTGCT (site CAAGCAGCTAG) | 0.00437
45 | CAAACAGCATGGACCGGTTTTCCCGGTAATCCGTATTTGCT (site CAATCAGCTAG) | 0
46 | CAAAGAACATGGACCGGTTTTCCCGGTAATCCGTATTTGCG (site CAAAGAACTCG) | 2.53
47 | CAAAGGGCATGGACCGGTTTTCCCGGTAATCCGTATTTGAC (site CAAAGGGCTGT) | 2.62
48 | CAAATTTCATGGACCGGTTTTCCCGGTAATCCGTATTTGTG (site CAAATTTCTCA) | 0.763
49 | CAACAGACATGGACCGGTTTTCCCGGTAATCCGTATTTGAA (site CAACAGACTTT) | 1.88
50 | CAACCAGCATGGACCGGTTTTCCCGGTAATCCGTATTTGCT (site CAAACAGCTAG) | 0

Row | Sequence | recombinant UMI read abundance (log10)
51 | CAACCAGCATGGACCGGTTTTCCCGGTAATCCGTATTTGCT (site CAACCAGCTAG) | 0
52 | CAACCAGCATGGACCGGTTTTCCCGGTAATCCGTATTTGCT (site CAAGCAGCTAG) | 0
53 | CAACCAGCATGGACCGGTTTTCCCGGTAATCCGTATTTGCT (site CAATCAGCTAG) | 0
54 | CAACCCACATGGACCGGTTTTCCCGGTAATCCGTATTTGAT (site CAACCCACTAT) | 0.946
55 | CAACCTGCATGGACCGGTTTTCCCGGTAATCCGTATTTGGC (site CAACCTGCTGC) | 0
56 | CAACTAACATGGACCGGTTTTCCCGGTAATCCGTATTTGGA (site CAACTAACTTC) | 1.93
57 | CAACTAACATGGACCGGTTTTCCCGGTAATCCGTATTTGGA (site CCACTAACTTC) | 0.226
58 | CAACTAACATGGACCGGTTTTCCCGGTAATCCGTATTTGGA (site CGACTAACTTC) | 0.548
59 | CAACTAACATGGACCGGTTTTCCCGGTAATCCGTATTTGGA (site CTACTAACTTC) | 0.341
60 | CAACTAGCATGGACCGGTTTTCCCGGTAATCCGTATTTGCA (site CAACTAGCTTG) | 1.13
61 | CAACTATCATGGACCGGTTTTCCCGGTAATCCGTATTTGAT (site CAACTATCTAT) | 0.885
62 | CAAGAATCATGGACCGGTTTTCCCGGTAATCCGTATTTGAC (site CAAGAATCTGT) | 2.88
63 | CAAGAATCATGGACCGGTTTTCCCGGTAATCCGTATTTGAC (site CTAGTATCTGT) | 0.416
64 | CAAGACACATGGACCGGTTTTCCCGGTAATCCGTATTTGGG (site CAAGACACTCC) | 1.28
65 | CAAGACACATGGACCGGTTTTCCCGGTAATCCGTATTTGGG (site CAAGCCACTCC) | 0.00576
66 | CAAGACACATGGACCGGTTTTCCCGGTAATCCGTATTTGGG (site CAAGGCACTCC) | 0.0364
67 | CAAGACACATGGACCGGTTTTCCCGGTAATCCGTATTTGGG (site CAAGTCACTCC) | 0.274
68 | CAAGATACATGGACCGGTTTTCCCGGTAATCCGTATTTGGT (site CAAGATACTAC) | 1.97
69 | CAAGCACCATGGACCGGTTTTCCCGGTAATCCGTATTTGTG (site CAAGCACCTCA) | 0.018
70 | CAAGCACCATGGACCGGTTTTCCCGGTAATCCGTATTTGTG (site CAAGCCCCTCA) | 0.00553
71 | CAAGCACCATGGACCGGTTTTCCCGGTAATCCGTATTTGTG (site CAAGCGCCTCA) | 0.00843
72 | CAAGCACCATGGACCGGTTTTCCCGGTAATCCGTATTTGTG (site CAAGCTCCTCA) | 0
73 | CAAGCAGCATGGACCGGTTTTCCCGGTAATCCGTATTTGCA (site CAAGCAGCTAG) | 1.22
74 | CAAGCAGCATGGACCGGTTTTCCCGGTAATCCGTATTTGCA (site CAAGCAGCTCG) | 1.43
75 | CAAGCAGCATGGACCGGTTTTCCCGGTAATCCGTATTTGCA (site CAAGCAGCTGG) | 1.06
